Active and inactive are the calls of the source. No cut-off for these calls is given here.
Tests used:
Homo sapiens [1] = species: Homo sapiens; test: Antiproliferative activity against human GLI56 cells grown as 2D culture at 0.0625 to 10 uM after 5 days by CellTiter-Glo luminescence assay; format: functional, cell-based
Homo sapiens [2] = species: Homo sapiens; test: Antiproliferative activity against human GLI56 cells grown as 3D culture at 10 uM after 5 days by CellTiter-Glo 3D viability assay; format: functional, cell-based
Homo sapiens [3] = species: Homo sapiens; test: Cytotoxicity against human D423 cells grown as 3D culture assessed as disruption of morphological integrity at 10 uM after 5 days by confocal laser scanning microscopic method; format: functional, cell-based
Homo sapiens [4] = species: Homo sapiens; test: Antiproliferative activity against human D423 cells grown as 2D culture at 0.0625 to 10 uM after 5 days by CellTiter-Glo luminescence assay; format: functional, cell-based
Homo sapiens [5] = species: Homo sapiens; test: Antiproliferative activity against human D423 cells grown as 3D culture at 10 uM after 5 days by CellTiter-Glo 3D viability assay; format: functional, cell-based
Homo sapiens [6] = species: Homo sapiens; test: Cytotoxicity against human GLI56 cells grown as 3D culture assessed as disruption of morphological integrity at 10 uM after 5 days by confocal laser scanning microscopic method; format: functional, cell-based
[7] = system: Panel NCI-60 (60 carcinoma cell lines); test: Growth inhibition of human NCI60 cells; format: functional
[8] = Growth inhibition of normal human epidermal melanocytes by MTT assay; format: cell-based, Melanocyte

With C=C[C@]1(C)C=C2C(=O)[C@@]3(OC(=O)c4ccc(C)o4)OC(=O)[C@@]4(CCCC(C)(C)[C@H]34)[C@@]2(O)CC1 the Activity (Homo sapiens [1]) was “Active”, the Activity (Homo sapiens [2]) was “Active” and the Activity (Homo sapiens [3]) was “Active”. For the same compound, the Activity (Homo sapiens [4]) was “Active”, the Activity (Homo sapiens [5]) was “Active” and the Activity (Homo sapiens [6]) was “Active”.

For CC1(C)CCC[C@]23C(=O)O[C@](O)(C(=O)C4=C[C@@](C)(/C=C/c5ccc(Cl)cc5)CC[C@@]42O)[C@@H]13, the Activity (Homo sapiens [1]) was “Active”, the Activity (Homo sapiens [2]) was “Active” and the Activity (Homo sapiens [3]) was “Active”. For the same compound, the Activity (Homo sapiens [4]) was “Active”, the Activity (Homo sapiens [5]) was “Active” and the Activity (Homo sapiens [6]) was “Active”.

With C=CCCCC(=O)O[C@]12OC(=O)[C@@]3(CCCC(C)(C)[C@H]13)[C@@]1(O)CC[C@](C)(C=C)C=C1C2=O the Activity (Homo sapiens [1]) was “Active”, the Activity (Homo sapiens [2]) was “Active” and the Activity (Homo sapiens [4]) was “Active”. The Activity (Homo sapiens [5]) was “inactive” and the Activity (Homo sapiens [6]) was “Active”.

For CC1(C)CCC[C@]23C(=O)O[C@](O)(C(=O)C4=C[C@@](C)(/C=C/[Si](C)(C)C)CC[C@@]42O)[C@@H]13, the Activity (Homo sapiens [1]) was “Active”, the Activity (Homo sapiens [2]) was “inactive” and the Activity (Homo sapiens [4]) was “Active”. The Activity (Homo sapiens [5]) was “inactive”.

For C=C[C@]1(C)C=C2C(=O)[C@@]3(O)OC(=O)[C@@]4(CCCC(C)(C)[C@H]34)[C@@]2(O)CC1 [SPHAEROPSIDIN A], the Activity (Homo sapiens [1]) was “Active”, the Activity (Homo sapiens [2]) was “inactive” and the GI50 [7] was 1.6 µM. The Activity (Homo sapiens [4]) was “Active”, the GI50 [8] was 13 µM and the Activity (Homo sapiens [5]) was “inactive”. For the same compound, the Activity (Homo sapiens [6]) was “inactive”.

In the case of C=C[C@]1(C)C=C2C(=O)[C@@]3(OC(=O)CCC)OC(=O)[C@@]4(CCCC(C)(C)[C@H]34)[C@@]2(O)CC1, the Activity (Homo sapiens [1]) is reported as “Active”, the Activity (Homo sapiens [2]) is reported as “Active” and the Activity (Homo sapiens [4]) is reported as “Active”. For the same compound, the Activity (Homo sapiens [5]) was “inactive” and the Activity (Homo sapiens [6]) was “Active”.

From ChEMBL document CHEMBL4184163, “Aspergillus candidus is a newly recognized source of sphaeropsidin A: Isolation, semi-synthetic derivatization and anticancer evaluation” (Bioorg Med Chem Lett, 2017)
